Measurements as given in ChEMBL document CHEMBL4339247, “Ascomylactams A-C, Cytotoxic 12- or 13-Membered-Ring Macrocyclic Alkaloids Isolated from the Mangrove Endophytic Fungus Didymella sp. CYSK-4, and Structure Revisions of Phomapyrrolidones A and C” (J Nat Prod, 2019).

Experiments:
Type in all cases: functional, cell-based
[1] = system: MDA-MB-231; assay: Cytotoxicity in human MDA-MB-231 cells assessed as reduction in cell viability incubated for 72 hrs by MTT assay; conditions: MDA-MB-231, 72 h
[2] = system: MDA-MB-435; assay: Cytotoxicity in human MDA-MB-435 cells assessed as reduction in cell viability incubated for 72 hrs by MTT assay; conditions: MDA-MB-435, 72 h
[3] = system: NCI-H460; assay: Cytotoxicity in human NCI-H460 cells assessed as reduction in cell viability incubated for 72 hrs by MTT assay; conditions: NCI-H460, 72 h
[4] = system: PC-3; assay: Cytotoxicity in human PC3 cells assessed as reduction in cell viability incubated for 72 hrs by MTT assay; conditions: PC-3, 72 h
[5] = system: HCT-116; assay: Cytotoxicity in human HCT116 cells assessed as reduction in cell viability incubated for 72 hrs by MTT assay; conditions: HCT-116, 72 h
[6] = system: SNB-19; assay: Cytotoxicity in human SNB19 cells assessed as reduction in cell viability incubated for 72 hrs by MTT assay; conditions: SNB-19, 72 h

| Compound | IC50 [1] [µM] | IC50 [2] [µM] | IC50 [3] [µM] | IC50 [4] [µM] | IC50 [5] [µM] | IC50 [6] [µM] |
| --- | --- | --- | --- | --- | --- | --- |
| CC1=C[C@@]2(C)C(=C(C)[C@H]3[C@@H]4C[C@H](C)C[C@H](C)[C@H]4[C@@H]4Oc5ccc(cc5)C[C@@]5(O)C=C(C(=O)N5)C(=O)[C@@H]2[C@@H]43)[C@H]1C | 6.6 | 12 | 13 | 20 | 4.5 | 18 |
| CC1=C[C@@]2(C)C(=C(C)[C@H]3[C@@H]4C[C@H](C)C[C@H](C)[C@H]4[C@H]4Oc5ccc(cc5)C[C@@H]5C(=O)NC(=O)[C@H]5C(=O)[C@@H]2[C@@H]43)[C@H]1C | 30 | 26 | 28 | > 50 | 25 | > 50 |
| CC1=C[C@@]2(C)C(=C(C)[C@H]3[C@@H]4C[C@H](C)C[C@H](C)[C@H]4[C@H]4Oc5ccc(cc5)C[C@]5(O)NC(=O)[C@]6(O[C@H]65)C(=O)[C@@H]2[C@@H]43)[C@H]1C | 5.1 | 7.8 | 4.4 | 7.5 | 4.2 | 7.8 |
| CC1=C[C@@]2(C)C(=C(C)[C@H]3[C@@H]4C[C@H](C)C[C@H](C)[C@H]4[C@H]4Oc5ccc(cc5)C[C@]5(O)NC(=O)[C@]6(O[C@H]65)C(=O)[C@H]2[C@@H]43)[C@H]1C | 12 | 16 | 12 | 22 | 15 | 29 |
| CO[C@@H]1/C2=C(\O)[C@H]3[C@H]4[C@H](Oc5ccc(cc5)C[C@]1(O)NC2=O)[C@H]1[C@@H](C[C@H](C)C[C@@H]1C)[C@@H]4C(C)=C1[C@@H](C)C(C)=C[C@@]13C | 5.9 | 4.9 | 4.4 | 5.7 | 5.5 | 6.8 |
| COc1cccc2c1C(=O)c1c(O)c3c(c(O)c1C2=O)C[C@@](O)(C(=O)CO)C[C@@H]3O[C@H]1C[C@H](N)[C@@H](O)[C@H](C)O1 [EPIRUBICIN] | – | – | – | – | – | 2.3 |
